Laboratory results taken from ChEMBL document CHEMBL1781917, “Computational aqueous solubility prediction for drug-like compounds in congeneric series” (Eur J Med Chem, 2008).

Tests used:
Format in all cases: physicochemical
[1] = Lipophilicity, log P of the compound; settings: octanol/water
[2] = Intrinsic solubility, log 1/S0 of the compound
[3] = Dissociation constant, pKa of the compound

Structure (SMILES) | logP [1] | log1/S0 [2] | pKa [3]
COc1ccc(NS(=O)(=O)c2ccc(N)cc2)nn1 [SULFAMETHOXYPYRIDAZINE] | 0.4 | 2.55 | 
CN1CCN=C(c2ccccc2)c2cc(Cl)ccc21 [MEDAZEPAM] |  | 4.41 | 
CN1C(=O)CN=C(c2ccccc2)c2cc(Cl)ccc21 [DIAZEPAM] |  | 3.83 | 
Nc1ccc(S(=O)(=O)Nc2ncccn2)cc1 [SULFADIAZINE] | -0.13 | 3.67 | 
Cc1ccnc(NS(=O)(=O)c2ccc(N)cc2)n1 [SULFAMERAZINE] | 0.13 |  | 
COc1cnc(NS(=O)(=O)c2ccc(N)cc2)nc1 | 0.46 | 3.63 | 
Cc1noc(NS(=O)(=O)c2ccc(N)cc2)c1C [SULFISOXAZOLE] | 1.15 | 3.45 | 
CNC(=O)Cn1c(=O)[nH]c2c(=O)n(CC(=O)NC(C(=O)C(F)(F)F)C(C)C)c(-c3ccccc3)cc2c1=O (stereo unspecified) |  | 3.73 | 
CC(C)C(NC(=O)Cn1c(-c2ccccc2)cc2c(=O)n(CC(N)=O)c(=O)[nH]c2c1=O)C(=O)C(F)(F)F (stereo unspecified) |  | 3.6 | 
O=C1CN=C(c2ccccc2Cl)c2cc(Cl)ccc2N1 [DELORAZEPAM] |  | 3.97 | 
Cc1cc(C)nc(NS(=O)(=O)c2ccc(N)cc2)n1 [SULFAMETHAZINE] | 0.89 |  | 
CCOCCn1c(=O)[nH]c2c(=O)n(CC(=O)NC(C(=O)C(F)(F)F)C(C)C)c(-c3ccccc3)cc2c1=O (stereo unspecified) |  | 4.83 | 
COC(OC)n1c(=O)[nH]c2c(=O)n(CC(=O)NC(C(=O)C(F)(F)F)C(C)C)c(-c3ccccc3)cc2c1=O (stereo unspecified) |  | 3.11 | 
Cc1cc(NS(=O)(=O)c2ccc(N)cc2)nc(C)n1 [SULFISOMIDINE] | -0.3 | 2.78 | 
COc1cc(NS(=O)(=O)c2ccc(N)cc2)nc(C)n1 [SULFAMETOMIDINE] |  | 3.05 | 
CC(C)C(NC(=O)Cn1c(-c2ccccc2)cc2c(=O)n(CCN3CCOCC3)c(=O)[nH]c2c1=O)C(=O)C(F)(F)F (stereo unspecified) |  | 3.44 | 7.04
COc1ncnc(NS(=O)(=O)c2ccc(N)cc2)c1OC [SULFADOXINE] | 1.06 | 3.59 | 
COc1ccc(Cn2c(=O)[nH]c3c(=O)n(CC(=O)NC(C(=O)C(F)(F)F)C(C)C)c(-c4ccccc4)cc3c2=O)cc1 (stereo unspecified) |  | 3.4 | 
CC(C)C(NC(=O)Cn1c(-c2ccccc2)cc2c(=O)n(C)c(=O)[nH]c2c1=O)C(=O)C(F)(F)F (stereo unspecified) |  | 4.03 | 
